Measured values reported in US8012982B2, “Modulators of HCV replication” (priority 2004, dated 2011).
Where two headings read alike, the source gives them in different places.

Assays:
[1] = system: pHCVNeo17.wt replicon; type: cell-based; conditions: for Replicon Activation Yes/No: pHCVNeo17.wt replicon in 10AIFN cells, cultured 4 days, Cell-ELISA
[2] = system: pHCVNeo17.m10 replicon; assay: microbe, parasite or virus in culture; type: cell-based; conditions: pHCVNeo17.m10 replicon in 10AIFN cells, cultured 4 days, Cell-ELISA, read-out: Replicon Inhibition Range IC50
[3] = system: HCV replicon in resistant clone 10AB7; assay: microbe, parasite or virus in culture; type: cell-based; conditions: Hepatitis C virus, Cell-ELISA, read-out: IC50 Compound (Ib)
[4] = system: HCV replicons derived from the Con1 isolate in human HeLa cells; type: cell-based
[5] = system: pHCVNeo17.m35 replicon; type: cell-based; conditions: replicon pHCVNeo17.m35: Y2065H
[6] = system: pHCVNeo17.m36 replicon; assay: microbe, parasite or virus in culture; type: cell-based; conditions: Hepatitis C virus; replicon pHCVNeo17.m36: K@2039, Y2065H; read-out: Cmpd Ib IC50
[7] = system: HCV replicon in resistant clone 10AB2; assay: microbe, parasite or virus in culture; type: cell-based; conditions: Hepatitis C virus, Cell-ELISA, read-out: IC50 Compound (Ib)
[8] = system: cell proliferation; conditions: relative to concentrations effective on the replicon
[9] = system: HCV replicons in resistant cell clones; type: cell-based; conditions: fold increase of IC50
[10] = system: pHCVNeo17.m21 replicon; assay: microbe, parasite or virus in culture; type: cell-based; conditions: Hepatitis C virus; replicon pHCVNeo17.m21: K@2039, S2404P; read-out: Cmpd Ib IC50
[11] = system: HCV replicon in resistant clone 10AB11; assay: microbe, parasite or virus in culture; type: cell-based; conditions: Hepatitis C virus, Cell-ELISA, read-out: IC50 Compound (Ib)
[12] = system: pHCVNeo17.m29 replicon; assay: microbe, parasite or virus in culture; type: cell-based; conditions: Hepatitis C virus, read-out: Cmpd Ib IC50 (μM)
[13] = system: non-adapted replicons derived from the BK isolate of HCV; type: cell-based
[14] = system: HCV replicon in resistant clone 10AB3; assay: microbe, parasite or virus in culture; type: cell-based; conditions: Hepatitis C virus, Cell-ELISA, read-out: IC50 Compound (Ib)
[15] = system: pHCVNeo17.m5 replicon; assay: microbe, parasite or virus in culture; type: cell-based; conditions: Hepatitis C virus; replicon pHCVNeo17.m5: K@2039; read-out: Cmpd Ib IC50
[16] = system: HCV replicons derived from the Con1 isolate in mouse hepatoma cell line Hepa1-6; type: cell-based
[17] = system: pBK-RMSI replicon; assay: microbe, parasite or virus in culture; type: cell-based; conditions: Hepatitis C virus, 96 h; subgenomic pBK-RMSI, BK, R1496M + S2204I; 10AIFN cells, four days after transfection
[18] = relative to concentrations effective on the replicon
[19] = system: pHCVNeo17.m50 replicon; assay: microbe, parasite or virus in culture; type: cell-based; conditions: Hepatitis C virus; replicon pHCVNeo17.m50: K@2039, R2129W; read-out: Cmpd Ib IC50
[20] = system: pHCVNeo17.SI replicon; assay: microbe, parasite or virus in culture; type: cell-based; conditions: Hepatitis C virus, 96 h; subgenomic pHCVNeo17.SI, Con1, S2204I; 10AIFN cells, four days after transfection
[21] = system: pHCVNeo17.m30 replicon; type: cell-based; conditions: replicon pHCVNeo17.m30: H2057R
[22] = system: HCV replicon in HBI10A cells; assay: microbe, parasite or virus in culture; type: cell-based; conditions: Hepatitis C virus
[23] = target: NS5A protein (Hepatitis C virus genotype 1b, UniProt Q9WMX2, INS2039K); type: cell-based; conditions: HBI10A cells, 2 μM compound (Ib), pulse-chase
[24] = system: pFL.m10 genomic replicon (adapted full length HCV genome); type: cell-based, HCV isolate Con1
[25] = system: pHCVNeo17.RG replicon; assay: microbe, parasite or virus in culture; type: cell-based; conditions: Hepatitis C virus, 96 h; subgenomic pHCVNeo17.RG, Con1, R2884G; 10AIFN cells, four days after transfection
[26] = system: non-adapted full length Con1 genomes; type: cell-based; conditions: lesser extent than with the corresponding replicons

In the case of CC(C)(C)OC(=O)N1CCN(c2ccc(C(=O)Nc3ccc(/C=C/c4ccc(O)cc4)cc3)cc2)CC1 [Example 116, tert-butyl 4-{4-[({4-[(E)-2-(4-hydroxyphenyl)vinyl]phenyl}amino)carbonyl]phenyl}piperazine-1-carboxylate], the “Replicon Activation Yes/No” value [1] is reported as “No” and the IC50 ([2]; Hepatitis C virus, 96 h) is reported as < 1 µM.
For CC(C)(C)OC(=O)N1CCN(c2ccc(C(=O)Nc3ccc(O)cc3)cc2)CC1 [Example 101, tert-butyl 4-(4-{[(4-hydroxyphenyl)amino]carbonyl}phenyl)piperazine-1-carboxylate], the IC50 [3] was > 2 µM, the “Inhibition of HCV replicons in HeLa cells” value [4] was “inhibited with comparable potencies” and the “Cmpd Ib IC50 (μM)” value [5] was “No effect”. The IC50 [6] was > 2 µM, the IC50 [7] was > 2 µM and the “Inhibition of cell proliferation, 14C thymidine incorporation” value [8] was “only at concentrations two orders of magnitude higher than those effective on the replicon”. For the same molecule, the “IC50 in resistant cell clones relative to parental cells” value [9] was “at least ten times higher”, the IC50 [10] was 0.038 µM and the “Replicon Activation Yes/No” value [1] was “Yes”. For the same molecule, the “Cmpd Ib IC50 (μM)” value ([1]; replicon pHCVNeo17.Wt, no mutations) was “^bactivation”, the IC50 [11] was > 2 µM and the IC50 [12] was > 2 µM. The “Activation of replication of non-adapted BK replicons” value [13] was “activated replication”, the IC50 [14] was > 2 µM and the IC50 [15] was 0.1 µM. For the same molecule, the “Inhibition of HCV replicons in Hepa1-6 cells” value [16] was “inhibited with comparable potencies”, the IC50 [17] was 0.65 µM and the “Toxicity, MTT cytotoxicity assay” value [18] was “only at concentrations two orders of magnitude higher than those effective on the replicon”. For the same molecule, the IC50 ([2]; Hepatitis C virus, 96 h) was < 1 µM, the IC50 [19] was > 2 µM and the IC50 [20] was 0.1 µM. The “Cmpd Ib IC50 (μM)” value [21] was “activation”, the IC50 ([22]; HBI10A replicon cells, read-out: IC50, dose-dependent inhibition of HCV replication) was 0.12 ± 0.06 µM and the IC50 ([22]; parental clone HBI10A, Cell-ELISA, read-out: IC50 Compound (Ib)) was 0.1 ± 0.05 µM. For the same molecule, the “Conversion of NS5A p56 into hyperphosphorylated p58” value [23] was “the rate and the extent of conversion of the p56 into p58 were reduced”, the “Inhibition of replication of an adapted full length HCV genome” value [24] was “inhibited with comparable potency” and the IC50 [25] was < 0.05 µM. The “Stimulation of replication of non-adapted full length Con1 genomes” value [26] was “stimulated replication”.
With C[C@@H](NC(=O)N1CCN(c2ccc(C(=O)Nc3ccc(O)cc3)cc2)CC1)c1ccccc1 [Example 306, 4-(4-{[(4-hydroxyphenyl)amino]carbonyl}phenyl)-N-[(1R)-1-phenylethyl] piperazine-1-carboxamide] the “Replicon Activation Yes/No” value [1] was “No” and the IC50 [2] was < 1 µM.
In the case of CC(C)COC(=O)N1CCN(c2ccc(C(=O)Nc3ccc(O)cc3)cc2)CC1 [Example 201, isobutyl 4-(4-{[(4-hydroxyphenyl)amino]carbonyl}phenyl)piperazine-1-carboxylate], the “Replicon Activation Yes/No” value [1] is reported as “No” and the IC50 ([2]; Hepatitis C virus, 96 h) is reported as > 1 µM.
In the case of CC(C)(C)OC(=O)N1CCN(c2ccc(NC(=O)c3ccc(O)cc3)cc2)CC1 [Example 603, tert-butyl 4-{4-[(4-hydroxybenzoyl)amino]phenyl}piperazine-1-carboxylate], the “Replicon Activation Yes/No” value [1] is reported as “No” and the IC50 ([2]; Hepatitis C virus, 96 h) is reported as > 1 µM.
With CC(=O)c1cccc(NC(=O)c2ccc(N3CCN(C(=O)OC(C)(C)C)CC3)cc2)c1 [Example 108, tert-butyl 4-(4-{[(3-acetylphenyl)amino]carbonyl}phenyl)piperazine-1-carboxylate] the “Replicon Activation Yes/No” value [1] was “No” and the IC50 ([2]; Hepatitis C virus, 96 h) was > 1 µM.
With CC(C)(C)OC(=O)N1CCN(c2ccc(C(=O)Nc3cccc(Br)c3)cc2)CC1 [Example 103, tert-butyl 4-(4-{[(3-bromophenyl)amino]carbonyl}phenyl)piperazine-1-carboxylate] the “Replicon Activation Yes/No” value [1] was “No” and the IC50 ([2]; Hepatitis C virus, 96 h) was < 1 µM.
For COc1ccc(CNC(=O)N2CCN(c3ccc(C(=O)Nc4ccc(O)cc4)cc3)CC2)cc1 [Example 303, 4-(4-{[(4-hydroxyphenyl)amino]carbonyl}phenyl)-N-(4-methoxybenzyl)piperazine-1-carboxamide], the “Replicon Activation Yes/No” value [1] was “Yes” and the IC50 ([2]; Hepatitis C virus, 96 h) was < 1 µM.
With CC(C)(C)C(=O)N1CCN(c2ccc(C(=O)Nc3ccc(O)cc3)cc2)CC1 [Example 403, 4-[4-(2,2-dimethylpropanoyl)piperazin-1-yl]-N-(4-hydroxyphenyl)benzamide] the “Replicon Activation Yes/No” value [1] was “No” and the IC50 ([2]; Hepatitis C virus, 96 h) was < 1 µM.
With CC(C)(C)OC(=O)N1CCN(c2ccc(C(=O)Nc3ccc(C(=O)c4ccccc4)cc3)cc2)CC1 [Example 112, tert-butyl 4-(4-{[(4-benzoylphenyl)amino]carbonyl}phenyl)piperazine-1-carboxylate] the “Replicon Activation Yes/No” value [1] was “No” and the IC50 ([2]; Hepatitis C virus, 96 h) was < 1 µM.
With CC(=O)Oc1ccc(NC(=O)c2ccc(N3CCN(C(=O)OC(C)(C)C)CC3)cc2)cc1 [Example 123, tert-butyl 4-[4-({[4-(acetyloxy)phenyl]amino}carbonyl)phenyl]piperazine-1-carboxylate] the “Replicon Activation Yes/No” value [1] was “Yes” and the IC50 ([2]; Hepatitis C virus, 96 h) was < 1 µM.
For O=C(Nc1ccc(O)cc1)c1ccc(N2CCN(S(=O)(=O)/C=C/c3ccccc3)CC2)cc1 [Example 503, N-(4-hydroxyphenyl)-4-(4-{[(E)-2-phenylvinyl]sulfonyl}piperazin-1-yl)benzamide], the “Replicon Activation Yes/No” value [1] was “No” and the IC50 ([2]; Hepatitis C virus, 96 h) was > 1 µM.
For CC(C)(C)NC(=O)N1CCN(c2ccc(C(=O)Nc3ccc(O)cc3)cc2)CC1 [Example 302, N-(tert-butyl)-4-(4-{[(4-hydroxyphenyl)amino]carbonyl}phenyl)piperazine-1-carboxamide], the “Replicon Activation Yes/No” value [1] was “Yes” and the IC50 ([2]; Hepatitis C virus, 96 h) was < 1 µM.
In the case of CC(C)(C)OC(=O)N1CCC(c2ccc(C(=O)Nc3ccc(O)cc3)cc2)CC1 [Example 602, tert-butyl 4-(4-{[(4-hydroxyphenyl)amino]carbonyl}phenyl)piperidine-1-carboxylate], the “Replicon Activation Yes/No” value [1] is reported as “No” and the IC50 ([2]; Hepatitis C virus, 96 h) is reported as > 1 µM.
In the case of O=C(Nc1ccc(O)cc1)c1ccc(N2CCN(C(=O)C3CCCCC3)CC2)cc1 [Example 401, 4-[4-(cyclohexylcarbonyl)piperazin-1-yl]-N-(4-hydroxyphenyl)benzamide], the “Replicon Activation Yes/No” value [1] is reported as “No” and the IC50 ([2]; Hepatitis C virus, 96 h) is reported as < 1 µM.
For O=C(Nc1ccc(O)cc1)c1ccc(N2CCN(C(=O)OCc3ccccc3)CC2)cc1 [Example 216, benzyl 4-(4-{[(4-hydroxyphenyl)amino]carbonyl}phenyl)piperazine-1-carboxylate], the “Replicon Activation Yes/No” value [1] was “Yes” and the IC50 ([2]; Hepatitis C virus, 96 h) was < 1 µM.
With C=Cc1ccc(NC(=O)c2ccc(N3CCN(C(=O)OC(C)(C)C)CC3)cc2)cc1 [Example 115, tert-butyl 4-(4-{[(4-vinylphenyl)amino]carbonyl}phenyl)piperazine-1-carboxylate] the “Replicon Activation Yes/No” value [1] was “No” and the IC50 ([2]; Hepatitis C virus, 96 h) was > 1 µM.
